Literature values in patent US9583325B2, “System and method of delicate membrane condensed phase membrane introduction mass spectrometry (CP-MIMS)” (priority 2013, dated 2017).

Legend:
[1] = SRC Physical Properties Database
[2] = for Log Kow: Table 1, SRC Physical Properties Database

Compound	Vapour pressure [1]	Log Kow [2]	log Kow ([2]; values given in text of Example 10)
CC(C)C1=CC2=CC[C@@H]3[C@](C)(CCC[C@@]3(C)C(=O)O)[C@H]2CC1 [Abietic Acid, Abietic acid]	4.3 × 10^−5 Pa	6.46	–
Cc1ccc(C)c(OCCCC(C)(C)C(=O)O)c1 [Gemfibrozil, 5-(2,5-dimethylphenoxy)-2,2-dimethyl-pentanoic acid]	8.1 × 10^−5 Pa	4.30	–
Oc1cc(Cl)ccc1Oc1ccc(Cl)cc1Cl [Triclosan, 5-chloro-2-(2,4-dichlorophenoxy)phenol]	8.6 × 10^−5 Pa	4.76	–
nonylphenol	1.15 Pa	5.76	6.04
